# Patent US20080097110A1, “Salt forms of substituted benzothienyl compounds” (priority 2006, published 2008)
# Tests used:
# [1] = Dynamic vapor sorption (DVS) testing of salt forms; assay type: physicochemical
# Protocol: Dynamic vapor sorption (DVS) testing was performed on several salt forms and sorption and desorption results under various relative humidity (RH) conditions are shown in Table 3.
# [2] = Equilibrium solubility testing of salt forms; assay type: physicochemical
# Protocol: Solubility testing was performed on several salt forms and results for free compound (mg) in media (ml) (represented as mg/ml) at equilibrium solubility are shown in Table 4. SIF refers to simulated intestinal fluid.
Compound,Sorption ([1]; 0-60% RH),Sorption ([1]; 0-90% RH),Sorption ([1]; 60-70% RH),Sorption ([1]; 70-80% RH),Sorption ([1]; 80-90% RH),Desorption ([1]; 90-0% RH),other results
CP(=O)([O-])C(C(=O)N/C=C/c1ccc(F)c(F)c1)c1csc2ccc(Cl)cc12.[K+] (centres unmarked) [Form F2],0-60% RH: 0.00%,0-90% RH: 11.35%,60-70% RH: 0.30%,70-80% RH: 2.46%,80-90% RH: 8.59%,90-0% RH: 16.81%,
CP(=O)([O-])C(C(=O)N/C=C/c1ccc(F)c(F)c1)c1csc2ccc(Cl)cc12.[K+] (centres unmarked) [Form F3],0-60% RH: 0.00%,0-90% RH: 11.35%,60-70% RH: 0.30%,70-80% RH: 2.46%,80-90% RH: 8.59%,90-0% RH: 16.81%,
CNC[C@H](O)[C@@H](O)[C@H](O)[C@H](O)CO.CP(=O)(O)C(C(=O)N/C=C/c1ccc(F)c(F)c1)c1csc2ccc(Cl)cc12 (centres unmarked) [Form C2],,0-90% RH: 5.52%,,,80-90% RH: 1.84%,90-0% RH: 6.66%,Sorption ([1]; 0-80% RH): 0-80% RH: 3.68%; Desorption ([1]; 10-0% RH): 10-0% RH: 2.75%; Desorption ([1]; 90-10% RH): 90-10% RH: 3.91%; Solubility (remained in solution; equilibrium solubility could not be determined) ([2]; media not stated): > 232 mg/mL
CP(=O)(O)C(C(=O)N/C=C/c1ccc(F)c(F)c1)c1csc2ccc(Cl)cc12.NC(CO)(CO)CO (centres unmarked) [Form B2],,0-90% RH: 2.085%,,,,90-0% RH: 2.231%,
CP(=O)(O)C(C(=O)N/C=C/c1ccc(F)c(F)c1)c1csc2ccc(Cl)cc12.NC(CO)(CO)CO (centres unmarked) [Form B1],,,,,,,"Equilibrium solubility, free compound (mg) in media (ml) ([2]; pH 1.5): 1.7 mg/mL; Equilibrium solubility, free compound (mg) in media (ml) ([2]; pH 4.47): 42.2 mg/mL; Equilibrium solubility, free compound (mg) in media (ml) ([2]; pH 4.78): 14.6 mg/mL"
CO.CP(=O)(O)C(C(=O)N/C=C/c1ccc(F)c(F)c1)c1csc2ccc(Cl)cc12 (centres unmarked) [Form A],,0-90% RH: 2.94%,,,,,"Sorption ([1]; 0-30% RH): 0-30% RH: 0.34%; Desorption ([1]; 30-0% RH): 30-0% RH: 7.14%; Sorption ([1]; 30-90% RH): 30-90% RH: 2.60%; Desorption ([1]; 90-30% RH): 90-30% RH: 1.48%; Equilibrium solubility, free compound (mg) in media (ml) ([2]; media 0.1N HCL, pH 1.50 (A), 1.40 (Compound 1b), 1.51 (B1)): 5.7 mg/mL; Equilibrium solubility, free compound (mg) in media (ml) ([2]; media 0.1N NaOH, pH 4.47 (A), 11.78 (Compound 1b), 8.88 (B1)): 46.5 mg/mL; Equilibrium solubility, free compound (mg) in media (ml) ([2]; media SIF (simulated intestinal fluid), pH 4.78 (A), 7.85 (Compound 1b), 7.65 (B1)): 18.7 mg/mL"
CP(=O)([O-])C(C(=O)N/C=C/c1ccc(F)c(F)c1)c1csc2ccc(Cl)cc12.[K+] (centres unmarked) [Form F1],0-60% RH: 0.00%,0-90% RH: 11.35%,60-70% RH: 0.30%,70-80% RH: 2.46%,80-90% RH: 8.59%,90-0% RH: 16.81%,
